Laboratory results reported in ChEMBL document CHEMBL1158810, “Efficiency of foam fractionation for the enrichment of nonpolar compounds from aqueous extracts of plant materials” (J Nat Prod, 2005).

Experiment: Octanol-water partition coefficient, log POW of the compound
Assay type: physicochemical

Work on `CC(C)=CCC1=C(O)C(C(=O)C(C)C)=C(O)[C@](O)(CC=C(C)C)C1=O` yielded a logP (read-out: logP) of 2.92.
In the case of `CC(C)=CCC1=C(O)C(C(=O)CC(C)C)=C(O)[C@](O)(CC=C(C)C)C1=O`, the logP (read-out: logP) is reported as 3.01.
In the case of `Oc1cc(O)c2c(c1)O[C@H](c1ccc(O)c(O)c1)[C@H](O)C2` [(-)-EPICATECHIN], the logP (read-out: logP) is reported as 0.67.
`CC1=C(/C=C/C(C)=C/C=C/C(C)=C/C=C/C=C(C)/C=C/C=C(C)/C=C/C2=C(C)CCCC2(C)C)C(C)(C)CCC1` [BETA CAROTENE] gave a logP (read-out: logP) of 4.19.
`O=C(/C=C/c1ccc(O)cc1)CC(=O)/C=C/c1ccc(O)cc1` [BISDEMETHOXYCURCUMIN] gave a logP (read-out: logP) of 0.85.
In the case of `Oc1cc(O)c2c(c1)O[C@H](c1ccc(O)c(O)c1)[C@@H](O)C2` [CIANIDANOL], the logP (read-out: logP) is reported as 0.53.
Work on `COc1cc(/C=C/C(=O)CC(=O)/C=C/c2ccc(O)c(OC)c2)ccc1O` [CURCUMIN] yielded a logP of 1.15.
With `COc1cc(/C=C/C(O)=C/C(=O)/C=C/c2ccc(O)cc2)ccc1O` [DEMETHOXYCURCUMIN] the logP (read-out: logP) was 1.
With `O=C(O[C@@H]1Cc2c(O)cc(O)cc2O[C@@H]1c1ccc(O)c(O)c1)c1cc(O)c(O)c(O)c1` [EPICATECHIN GALLATE] the logP (read-out: logP) was 0.07.
In the case of `Oc1cc(O)c2c(c1)O[C@H](c1cc(O)c(O)c(O)c1)[C@H](O)C2` [EPIGALLOCATECHIN], the logP (read-out: logP) is reported as 0.13.
In the case of `O=C(O[C@@H]1Cc2c(O)cc(O)cc2O[C@@H]1c1cc(O)c(O)c(O)c1)c1cc(O)c(O)c(O)c1` [EPIGALOCATECHIN GALLATE], the logP (read-out: logP) is reported as 0.09.
With `O=C(O[C@@H]1Cc2c(O)cc(O)cc2O[C@H]1c1cc(O)c(O)c(O)c1)c1cc(O)c(O)c(O)c1` [GALLOCATECHIN GALLATE] the logP (read-out: logP) was 0.12.
`COc1ccc([C@@H]2CC(=O)c3c(O)cc(O[C@@H]4O[C@H](CO[C@@H]5O[C@@H](C)[C@H](O)[C@@H](O)[C@H]5O)[C@@H](O)[C@H](O)[C@H]4O)cc3O2)cc1O` [HESPERIDIN] showed a logP (read-out: logP) of -0.21.
`CC1=C[C@H](O)CC(C)(C)[C@H]1/C=C/C(C)=C/C=C/C(C)=C/C=C/C=C(C)/C=C/C=C(C)/C=C/C1=C(C)C[C@@H](O)CC1(C)C` [LUTEIN] showed a logP (read-out: logP) of 3.89.
`C[C@@H]1O[C@@H](O[C@H]2[C@H](Oc3cc(O)c4c(c3)O[C@H](c3ccc(O)cc3)CC4=O)O[C@H](CO)[C@@H](O)[C@@H]2O)[C@H](O)[C@H](O)[C@H]1O` [NARINGIN] gave a logP (read-out: logP) of -0.15.
